According to publication PMC6538641 (2019):

Columns and labels:
[1] = test system: AS1411 (DNA, G4) GGTGGTGGTGGTTGTGGTGGTGGTGG; assay: CD melting; conditions: 10 mM KCl, 90 mM LiCl; 10 mM lithium cacodylate, pH 7.2; 2 molar equivalents C8; Tm without ligand 56.3 °C
[2] = test system: U-AS1411 (DNA, G4, uracil in place of thymine at 12 and 13 (text: dT to rU substitutions)) GGTGGTGGTGGUUGTGGTGGTGGTGG; assay: CD melting; conditions: 10 mM KCl, 90 mM LiCl; 10 mM lithium cacodylate, pH 7.2; 2 molar equivalents C8; Tm without ligand 52.6 °C
[3] = test system: 5'-FAM-AS1411-TAMRA-3' (DNA, G4) GGTGGTGGTGGTTGTGGTGGTGGTGG; assay: FRET melting; conditions: 10 mM KCl, 90 mM LiCl; 10 mM lithium cacodylate, pH 7.2; 1 µM C8, 0.2 µM DNA; no nucleolin; Tm 46.9 °C
[4] = test system: AS1411 (DNA, G4) GGTGGTGGTGGTTGTGGTGGTGGTGG; assay: fluorescence titration of ligand, Hill model; conditions: 100 mM KCl, 30 mM potassium phosphate; pH 7.2; 5 μM C8; apparent; Hill n 2.8; SD ≤ 1 × 10^−8 M
[5] = test system: U-AS1411 (DNA, G4, uracil in place of thymine at 12 and 13 (text: dT to rU substitutions)) GGTGGTGGTGGUUGTGGTGGTGGTGG; assay: fluorescence titration of ligand, Hill model; conditions: 100 mM KCl, 30 mM potassium phosphate; pH 7.2; 5 μM C8; apparent; Hill n 2.5; SD ≤ 1 × 10^−8 M
nucleolin = nucleolin (UniProt P19338); assay: fluorescence titration; conditions: Fluorescence titration: buffer for the nucleolin titration not stated separately (C8-aptamer titrations: 30 mM potassium phosphate pH 7.2, 100 mM KCl)
UniProt P19338, sequence (P19338 whole entry): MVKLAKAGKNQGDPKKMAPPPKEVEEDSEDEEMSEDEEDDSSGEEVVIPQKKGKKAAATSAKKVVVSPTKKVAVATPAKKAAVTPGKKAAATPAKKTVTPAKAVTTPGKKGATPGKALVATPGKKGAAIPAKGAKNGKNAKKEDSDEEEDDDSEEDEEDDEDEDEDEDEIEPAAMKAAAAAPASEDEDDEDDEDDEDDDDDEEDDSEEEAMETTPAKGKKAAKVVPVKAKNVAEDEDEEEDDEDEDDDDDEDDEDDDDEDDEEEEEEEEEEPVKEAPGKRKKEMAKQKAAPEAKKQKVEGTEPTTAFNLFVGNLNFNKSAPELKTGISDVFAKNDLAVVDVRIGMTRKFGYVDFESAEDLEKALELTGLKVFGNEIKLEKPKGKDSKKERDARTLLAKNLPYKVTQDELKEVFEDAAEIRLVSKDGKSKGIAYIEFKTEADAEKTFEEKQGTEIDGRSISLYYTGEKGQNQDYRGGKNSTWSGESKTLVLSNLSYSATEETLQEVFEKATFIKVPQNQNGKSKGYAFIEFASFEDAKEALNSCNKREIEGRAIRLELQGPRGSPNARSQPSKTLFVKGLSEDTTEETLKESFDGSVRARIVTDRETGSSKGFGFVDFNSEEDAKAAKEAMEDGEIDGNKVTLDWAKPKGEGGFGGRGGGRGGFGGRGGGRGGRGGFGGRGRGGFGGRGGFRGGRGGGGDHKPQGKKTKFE

| ΔTm [1] | ΔTm [2] | ΔTm [3] | KD [4] | KD [5] | Compound | Kd (nucleolin; no C8, Cy3-AS1411 at 1 uM (Kd far below probe concentration)) | Kd (nucleolin; with ligand C8, Cy3-AS1411 at 1 uM (Kd far below probe concentration)) |
| --- | --- | --- | --- | --- | --- | --- | --- |
| 28.4 ± 0.2 °C | 24.5 ± 0.4 °C | 13.1 ± 0.8 °C | 1290 nM | 1370 nM | CN(C)c1ccc2cc3ccc(N(C)C)cc3[n+](CCCCCCCCNC(=O)c3ccc(I)cc3)c2c1 |  |  |
|  |  |  |  |  | GGTGGTGGTGGTTGTGGTGGTGGTGG [Cy3-AS1411] | 0.00863 nM | 0.00638 nM |
